Our source for the IC50 values is patent US20260226020A1, “Nav 1.7 AND/OR Nav 1.8 BLOCKING HYDRAZIDES, PROCESSES FOR THE PREPARATION THEREOF, COMPOSITIONS, USES, METHODS OF TREATMENT USING SAME AND KITS” (Eurofarma Laboratórios S.A., priority 2023, published 2026).

Experiment [1] deals with T1, human sodium channels Nav 1.8 (Homo sapiens, UniProt Q9Y5Y9).
T1 construct: expressed in transfected cells
Briefly: Automated whole-cell voltage-clamp (ScreenPatch 384P) sodium current block in CHO cells expressing Nav 1.8. It is filed as cell-based. Particulars: CHO cells stably expressing human Nav 1.8; whole cell patch clamp, inactivation step -40 mV 8 s, test step 10 mV (TP1A), room temperature; mean where tested in two or more assays; read-out: Nav1.8 IC50. Here is the method:
(§1) Biological assays were performed on Chinese hamster ovary (CHO) cells that express human sodium channels Nav 1.8 or Nav 1.7 in a stable manner.
(§2) The experimental protocol voltage-clamp using the whole cell configuration was established on the automated ScreenPatch© 384P platform (SP384PE, Nanion Technologies, Livingston, NJ) and the results were recorded with a Nanion 384-well Patch Clamp chip (NPC) (Nanion Technologies, Livingston, NJ).
(§3) Formula I compounds were diluted in eight concentrations in the extracellular solution composed of saline saline solution, buffered with HEPES (mM): NaCl, 137; KCl, 4; CaCl2, 3.8; MgCl2, 1; HEPES, 10; Glucose, 10; pH 7.4. The […], 50; CsF, 90; MgCl2, 5; EGTA, 5; HEPES, 10; pH 7.2. The duration of exposure of each compound with cells expressing Nav 1.7 or Nav 1.8 was at least five minutes, and the assays were performed at room temperature.
(§4) The measurements of the sodium currents of Nav 1.8 and Nav 1.7 were obtained using the voltage protocol described below.
(§5) A holding voltage of −100 mV was established followed by an inactivation voltage step at −40 mV for 8 seconds, followed by a step of −100 mV for 20 ms, followed by a 20 ms step for 10 mV for Nav 1.8 or 0 mV for Nav 1.7 (TP1A) before returning to the holding voltage of −100 mV.
(§6) The protocol was repeated at a frequency of 0.05 Hz and the amplitude of the current was quantified throughout the recording of the TP1A phase. The variation in the amplitude of the peak current was evaluated according to the formula described below, after exposing the cells expressing the channels to each concentration of the different compounds:
(§7) wherein ITP1A,basal and ITP1A,molecule represent the peaks of sodium current input into TP1A before exposure to the compound and in the presence of the compound, respectively.
(§8) The decrease in the amplitude of the peak current, after the exposure of the cells to the compounds, was used to calculate the percentage of relative blockage of the channels in relation to the positive control according to the formula below: […]
(§9) wherein % V and % CP represent the means of the values of current inhibition with a vehicle (DMSO) and positive controls, respectively. The sodium currents of the positive control were considered as 100%.
(§10) wherein [Test] represents the concentration of the molecule evaluated, CI50 is the concentration of the compound that generates half of the maximum inhibition, N is the Hill coefficient, and % Block′ is the percentage of sodium channel current (Nav 1.8 and Nav 1.7) blocked at each concentration of the molecule evaluated. Data were obtained by nonlinear regression (nonlinear least squares) with XLfit for Excel (Microsoft, Redmond, WA).
(§11) The compounds were tested in at least one assay to obtain the value of CI50. For compounds that were tested in two or more assays, the results are described as the means of the CI50 values.

Experiment [2] addresses T2, human sodium channels Nav 1.7 (Homo sapiens, UniProt Q15858).
T2 construct: expressed in transfected cells
Briefly: Automated whole-cell voltage-clamp (ScreenPatch 384P) sodium current block in CHO cells expressing Nav 1.7. The format is cell-based. Particulars: CHO cells stably expressing human Nav 1.7; whole cell patch clamp, inactivation step -40 mV 8 s, test step 0 mV (TP1A), room temperature; mean where tested in two or more assays; read-out: Nav1.7 IC50. Here is the method: as §1, §2, §3, §4, §5, §6, §7, §8, §9, §10, §11

T1 sequence (Q9Y5Y9 whole entry): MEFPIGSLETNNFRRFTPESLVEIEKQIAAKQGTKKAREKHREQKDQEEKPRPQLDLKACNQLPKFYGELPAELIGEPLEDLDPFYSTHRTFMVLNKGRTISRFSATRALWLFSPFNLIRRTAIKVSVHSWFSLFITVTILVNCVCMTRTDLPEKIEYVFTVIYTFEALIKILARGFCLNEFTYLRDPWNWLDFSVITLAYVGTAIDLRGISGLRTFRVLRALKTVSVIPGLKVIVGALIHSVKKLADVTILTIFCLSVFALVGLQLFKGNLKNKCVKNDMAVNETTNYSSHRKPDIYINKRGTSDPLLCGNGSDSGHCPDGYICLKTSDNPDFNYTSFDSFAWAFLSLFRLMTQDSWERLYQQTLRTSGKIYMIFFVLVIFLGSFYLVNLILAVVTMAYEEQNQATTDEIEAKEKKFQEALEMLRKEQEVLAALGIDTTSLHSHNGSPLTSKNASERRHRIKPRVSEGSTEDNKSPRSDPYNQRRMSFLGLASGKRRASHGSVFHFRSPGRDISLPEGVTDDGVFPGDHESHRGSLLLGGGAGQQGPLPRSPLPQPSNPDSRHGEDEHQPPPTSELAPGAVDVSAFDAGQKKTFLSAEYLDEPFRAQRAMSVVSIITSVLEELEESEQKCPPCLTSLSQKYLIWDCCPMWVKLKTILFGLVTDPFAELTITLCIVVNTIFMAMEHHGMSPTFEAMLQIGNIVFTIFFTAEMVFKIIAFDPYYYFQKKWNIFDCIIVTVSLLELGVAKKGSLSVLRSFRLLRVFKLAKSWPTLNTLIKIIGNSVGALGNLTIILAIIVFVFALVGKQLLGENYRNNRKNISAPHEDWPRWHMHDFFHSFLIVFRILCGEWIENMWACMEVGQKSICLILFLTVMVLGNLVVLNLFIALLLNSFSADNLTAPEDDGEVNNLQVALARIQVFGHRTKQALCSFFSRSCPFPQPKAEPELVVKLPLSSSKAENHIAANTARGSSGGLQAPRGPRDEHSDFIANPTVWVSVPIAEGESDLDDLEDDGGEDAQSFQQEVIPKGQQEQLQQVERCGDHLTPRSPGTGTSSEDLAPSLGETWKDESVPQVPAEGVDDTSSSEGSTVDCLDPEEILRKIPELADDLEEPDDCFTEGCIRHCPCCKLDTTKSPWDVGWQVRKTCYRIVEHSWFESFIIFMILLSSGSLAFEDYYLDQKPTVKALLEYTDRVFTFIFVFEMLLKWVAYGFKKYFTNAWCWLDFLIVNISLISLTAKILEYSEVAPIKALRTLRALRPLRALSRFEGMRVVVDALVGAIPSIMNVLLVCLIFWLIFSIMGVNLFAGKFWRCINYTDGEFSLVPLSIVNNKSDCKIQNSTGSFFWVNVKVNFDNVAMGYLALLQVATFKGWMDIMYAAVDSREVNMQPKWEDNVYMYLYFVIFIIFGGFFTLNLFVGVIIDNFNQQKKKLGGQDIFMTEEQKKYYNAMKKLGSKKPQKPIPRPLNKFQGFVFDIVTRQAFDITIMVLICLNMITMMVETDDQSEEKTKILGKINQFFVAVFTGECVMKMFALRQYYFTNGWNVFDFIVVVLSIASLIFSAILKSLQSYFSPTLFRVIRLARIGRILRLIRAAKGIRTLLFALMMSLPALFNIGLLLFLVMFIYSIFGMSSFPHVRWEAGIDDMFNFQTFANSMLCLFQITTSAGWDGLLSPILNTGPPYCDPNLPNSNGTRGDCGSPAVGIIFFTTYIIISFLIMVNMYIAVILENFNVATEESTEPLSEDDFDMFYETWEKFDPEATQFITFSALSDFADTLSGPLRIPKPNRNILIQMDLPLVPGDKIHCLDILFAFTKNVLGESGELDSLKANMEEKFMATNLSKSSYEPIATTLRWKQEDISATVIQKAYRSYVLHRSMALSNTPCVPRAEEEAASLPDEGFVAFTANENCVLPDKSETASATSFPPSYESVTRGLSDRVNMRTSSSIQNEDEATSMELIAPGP
T2 sequence (Q15858 whole entry): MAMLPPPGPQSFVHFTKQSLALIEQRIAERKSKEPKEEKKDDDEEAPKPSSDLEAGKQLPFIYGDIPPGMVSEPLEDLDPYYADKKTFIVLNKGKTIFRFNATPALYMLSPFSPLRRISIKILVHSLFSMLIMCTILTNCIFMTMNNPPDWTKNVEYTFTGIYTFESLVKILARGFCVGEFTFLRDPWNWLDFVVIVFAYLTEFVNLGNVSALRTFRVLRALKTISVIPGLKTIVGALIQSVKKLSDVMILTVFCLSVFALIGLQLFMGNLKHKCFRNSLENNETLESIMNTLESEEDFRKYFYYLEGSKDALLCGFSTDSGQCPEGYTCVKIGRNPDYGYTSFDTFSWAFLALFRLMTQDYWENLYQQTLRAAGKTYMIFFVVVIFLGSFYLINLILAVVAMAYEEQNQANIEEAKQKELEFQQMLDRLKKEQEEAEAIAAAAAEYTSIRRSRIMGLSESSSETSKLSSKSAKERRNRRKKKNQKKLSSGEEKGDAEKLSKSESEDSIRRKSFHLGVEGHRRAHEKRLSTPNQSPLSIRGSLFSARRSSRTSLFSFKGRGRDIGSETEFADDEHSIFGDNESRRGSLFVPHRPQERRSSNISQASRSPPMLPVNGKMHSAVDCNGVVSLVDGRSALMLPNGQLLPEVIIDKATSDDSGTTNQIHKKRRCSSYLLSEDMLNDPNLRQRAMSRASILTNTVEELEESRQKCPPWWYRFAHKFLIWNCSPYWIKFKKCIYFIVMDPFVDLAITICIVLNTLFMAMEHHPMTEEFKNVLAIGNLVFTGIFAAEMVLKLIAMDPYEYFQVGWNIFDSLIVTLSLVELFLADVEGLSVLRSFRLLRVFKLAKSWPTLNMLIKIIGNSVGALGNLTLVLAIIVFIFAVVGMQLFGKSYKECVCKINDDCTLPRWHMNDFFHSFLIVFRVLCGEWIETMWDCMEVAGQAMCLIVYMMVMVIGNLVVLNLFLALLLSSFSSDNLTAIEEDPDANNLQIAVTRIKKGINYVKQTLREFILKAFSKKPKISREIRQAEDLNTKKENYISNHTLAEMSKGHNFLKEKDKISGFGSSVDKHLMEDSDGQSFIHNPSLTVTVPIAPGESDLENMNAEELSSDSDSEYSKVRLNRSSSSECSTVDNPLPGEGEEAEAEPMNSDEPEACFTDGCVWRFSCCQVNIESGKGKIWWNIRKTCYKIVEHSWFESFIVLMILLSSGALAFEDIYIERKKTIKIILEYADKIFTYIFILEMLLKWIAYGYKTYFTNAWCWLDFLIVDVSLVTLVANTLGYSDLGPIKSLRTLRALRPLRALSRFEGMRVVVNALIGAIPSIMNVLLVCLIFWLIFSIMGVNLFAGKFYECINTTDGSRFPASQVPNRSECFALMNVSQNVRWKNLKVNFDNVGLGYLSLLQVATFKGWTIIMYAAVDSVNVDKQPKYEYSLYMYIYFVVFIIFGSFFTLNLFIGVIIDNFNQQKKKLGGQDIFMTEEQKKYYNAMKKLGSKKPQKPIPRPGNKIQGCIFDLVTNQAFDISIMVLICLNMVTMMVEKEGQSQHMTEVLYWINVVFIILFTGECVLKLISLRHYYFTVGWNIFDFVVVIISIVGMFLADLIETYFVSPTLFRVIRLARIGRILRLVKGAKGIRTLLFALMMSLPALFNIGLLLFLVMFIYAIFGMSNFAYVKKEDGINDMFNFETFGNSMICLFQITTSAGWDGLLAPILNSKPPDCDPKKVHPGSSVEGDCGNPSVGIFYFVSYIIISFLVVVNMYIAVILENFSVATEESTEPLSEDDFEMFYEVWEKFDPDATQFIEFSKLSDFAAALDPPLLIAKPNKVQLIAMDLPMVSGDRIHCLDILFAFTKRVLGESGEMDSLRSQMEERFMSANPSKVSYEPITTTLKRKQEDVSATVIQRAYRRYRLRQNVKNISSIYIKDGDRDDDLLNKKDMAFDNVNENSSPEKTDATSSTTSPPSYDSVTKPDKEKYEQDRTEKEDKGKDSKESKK

As usually defined, the IC50 is the concentration that gives 50% inhibition. Consider `CCOc1ccc(-c2cncc(C(=O)NNCc3cc(OC)cc(OC)c3)n2)c(F)c1` [Compound 27, N′-(3,5-dimethoxybenzyl)-6-(4-ethoxy-2-fluorophenyl)pyrazine-2-carbohydrazide], for which the IC50 in experiment [1] was less than 500 nM; in experiment [2] it was more than 1000 nM.

Take `O=C(NNCc1ccc(Cl)cc1)c1cncc(-c2ccc(Cl)cc2)n1` [Compound 5, N′-(4-chlorobenzyl)-6-(4-chlorophenyl)pyrazine-2-carbohydrazide]: the IC50 in experiment [1] and in experiment [2] was more than 1000 nM each time.

`CCOc1ccc(-c2cncc(C(=O)NN[C@H](C)c3cc(OC)cc(OC)c3)n2)cc1` (single isomer, unassigned) [Compound 25]: the IC50 in experiment [1] is 500 to 1000 nM; in experiment [2] it was more than 1000 nM.

As to `CCOc1ccc(-c2cncc(C(=O)NNCc3cccc(OC)c3)n2)cc1` [Compound 16, 6-(4-ethoxyphenyl)-N′-(3-methoxybenzyl)pyrazine-2-carbohydrazide], the IC50 was less than 500 nM in experiment [1] and more than 1000 nM in experiment [2].

Turning to `O=C(NNCc1ccc(Cl)cc1)c1cncc(-c2ccc(OC3CC3)cc2)n1` [Compound 4, N′-(4-chlorobenzyl)-6-(4-cyclopropoxyphenyl)pyrazine-2-carbohydrazide], the IC50 in experiment [1] and in experiment [2] was more than 1000 nM in each case.

For `COc1ccc(-c2cncc(C(=O)NNCc3cc(OC)cc(OC)c3)n2)cc1` [Compound 1, N′-(3,5-dimethoxybenzyl)-6-(4-methoxyphenyl)pyrazine-2-carbohydrazide], the IC50 in experiment [1] was 500 to 1000 nM; in experiment [2] it was more than 1000 nM.

For the compound `COc1cc(CNNC(=O)c2cncc(-c3ccc(OC(F)F)cc3)n2)cc(OC)c1` [Compound 7, 6-(4-(difluoromethoxy)phenyl)-N′-(3,5-dimethoxybenzyl)pyrazine-2-carbohydrazide], the results for the IC50 in experiment [1] and in experiment [2] were 500 to 1000 nM and more than 1000 nM, respectively.

For `CCOc1ccc(-c2cncc(C(=O)NNCc3cc(OC)ccc3F)n2)cc1` [Compound 15, 6-(4-ethoxyphenyl)-N′-(2-fluoro-5-methoxybenzyl)pyrazine-2-carbohydrazide], the IC50 was less than 500 nM in experiment [1] and more than 1000 nM in experiment [2].

With `CCOc1ccc(-c2cnnc(C(=O)NNCc3ccccc3F)c2)cc1` [Compound 47, 5-(4-ethoxyphenyl)-N′-(2-fluorobenzyl)pyridazine-3-carbohydrazide], the IC50 in experiment [1] and in experiment [2] was more than 1000 nM each time.

For `CCOc1cc(C)c(-c2cncc(C(=O)NNCc3cc(OC)cc(OC)c3)n2)cn1` [Compound 40, N′-(3,5-dimethoxybenzyl)-6-(6-ethoxy-4-methylpyridin-3-yl)pyrazine-2-carbohydrazide], the IC50 in experiment [1] and in experiment [2] was more than 1000 nM in each case.

For the compound `CCOc1ccc(-c2cncc(C(=O)NN3CCCc4ccc(OC)cc4C3)n2)cc1` [Compound 11, 6-(4-ethoxyphenyl)-N-(8-methoxy-1,3,4,5-tetrahydro-2H-benzo[c]azepin-2-yl)pyrazine-2-carboxamide], the IC50 in experiment [1] and in experiment [2] was more than 1000 nM in each case.
